From patent US20100137429A1, “COMPOSITION FOR T[…] TRANSMUCOSAL ADMINISTRATION” (FUJIMOTO CO., LTD., priority 2007, published 2010)
Where a name gives a salt, the structure may show the parent alone. Read-outs that look alike come from different tables or passages of the source.

Legend:
[1] = Test Example 1: plasma level after single intravenous, subcutaneous and oral administration; assay type: in vivo, male SD rats; conditions: for bioavailability / Cmax / Tmax / AUC: rat, plasma, fasted male SD rats; for bioavailability: read-out: F (bioavailability); for AUC: trapezoidal method
Protocol: 0.5 mg/kg of the (−) isomer of the present compound (hydrochloride) (1 mL/kg of 0.5 mg/mL aqueous solution in physiological saline) was administered to the tail vein of each of male SD rats fasted since the previous day, and 5 minutes, 10 minutes, 20 minutes, 30 minutes, 45 minutes, 1 hour, 1.5 hours, 2 hours, 3 hours, 4 hours, and 6 hours after administration, whole blood was collected from the abdominal aorta.
(§1) 1 mg/kg of the (−) isomer of the present compound (hydrochloride) (5 mL/kg of 0.2 mg/mL aqueous solution) was administered subcutaneously to the back of the neck of each of male SD rats fasted since the previous day, and 5 minutes, 10 minutes, 20 minutes, 30 minutes, 1 hour, 1.5 hours, 2 hours, 3 hours, 4 hours, 6 hours, 8 hours and 10 hours after administration, whole blood was collected from the abdominal aorta.
as §1, with “10 mg/kg” for “1 mg/kg”, “(hydrochloride) (10” for “(hydrochloride) (5”, “of 1” for “of 0.2”, “administered forcedly orally” for “administered subcutaneously”, “to” for “to the back of the neck of each of”
The blood collected from each rat was transferred to a blood collecting tube containing 2Na EDTA, then sufficiently mixed by turning the tube upside down, and then centrifuged at 3,000 rpm for 10 minutes, and the obtained plasma was recovered. The plasma was freeze-preserved at −20° C. until analysis. The plasma level of the compound was measured by high performance liquid chromatography (HPLC). As a pharmacokinetic parameter, AUCO-t (area under the blood level-time curve, hereinafter referred to as “AUC”) was calculated by a trapezoidal method, and Cmax (maximum blood concentration) and tmax (time-to-maximum blood concentration) were determined from actual measurement values.

[2] = Test Example 4: plasma and brain homogenate concentrations after oral and intraoral administration; assay type: in vivo, male SD rats; conditions: rats
Protocol: The (−) isomer of the present compound (hydrochloride) was administered forcedly orally in a dose of 10 mg/kg (10 mL/kg of 1 mg/mL aqueous solution) to fasted male SD rats, and 5, 15, 30, 60 and 120 minutes after administration, whole blood was collected from the abdominal aorta.
The (−) isomer of the present compound (hydrochloride) was dropped in a dose of 1 mg/kg (0.1 mL/kg of 10 mg/mL aqueous solution) into the oral cavity of each fasted male SD rat anesthetized under ether. In the case of the powder preparation, the preparation which had been weighed so as to be in a dose of 1 mg/kg was placed beneath the tongue of each rat under anesthesia. In either case, the rats were left for 1 minute under anesthesia and then returned to cages, and 5, 15, 30, 60 and 120 minutes after administration, whole blood was collected from the abdominal aorta.
The blood collected from each rat was treated in the same manner as in Test Example 1. After blood collection, blood in the body of each rat was perfused with refrigerated physiological saline, and the cerebrum was excised therefrom. The cerebrum was cut thin with a knife and homogenized in 5 mL physiological saline added per gram of the tissues. 0.5 mL acetonitrile was added to 0.5 mL of the brain homogenate which was then stirred by means of a test tube mixer and centrifuged at 10,000 rpm for 5 minutes, to give a supernatant.
The concentrations of the compound in the plasma and in the brain homogenate were measured by LC/MS/MS. Simultaneously, the metabolites were quantitatively determined by using metabolite standards.

[3] = intraoral 1 mg/kg vs oral 10 mg/kg

CCCNC(CCC)Cc1cc2ccccc2o1 (single isomer, unassigned; (-)) [(−) isomer of the present compound (hydrochloride), (−)-1-(benzofuran-2-yl)-2-propylaminopentane]
blood level in the oral administration ([1]; oral 10 mg/kg, rats): low as compared with the given dose | bioavailability ([1]; sc, subcutaneous, 1 mg/kg): 144% | bioavailability ([1]; oral, 10 mg/kg): 4.1% | Cmax ([1]; sc, subcutaneous, 1 mg/kg): 135 ng/mL | Tmax ([1]; sc, subcutaneous, 1 mg/kg): 10.2 min | AUC ([1]; sc, subcutaneous, 1 mg/kg): 231 ng·h/mL | Cmax ([1]; intravenous, 0.5 mg/kg): 94.1 ng/mL | Tmax ([1]; intravenous, 0.5 mg/kg): 4.8 min | AUC ([1]; intravenous, 0.5 mg/kg): 80 ng·h/mL | Cmax ([1]; oral, 10 mg/kg): 86.9 ng/mL | Tmax ([1]; oral, 10 mg/kg): 10.2 min | AUC ([1]; oral, 10 mg/kg): 65.4 ng·h/mL | blood concentration in intraoral administration compared with oral administration ([2]; intraoral 1 mg/kg (aqueous solution, powder preparation) vs oral 10 mg/kg): equal to or higher than that in the oral administration | metabolites in intraoral administration compared with oral administration [2, 3]: lower metabolites | transferability of the compound to the brain (concentration in the brain homogenate) [2, 3]: significantly higher than in the oral administration
